Reference: ChEMBL document CHEMBL1146202, “First report of plasmid-mediated qnrA1 in a ciprofloxacin-resistant Escherichia coli strain in Latin America” (2007)
In brackets after ≈: the same amount, converted by molar mass.

Assays:
Type in all cases: functional
Escherichia coli [1] = experiment: Antimicrobial activity against streptomycin-resistant Escherichia coli J53 transconjugant with qnrA1 producing urinary specimen isolate 13.52 by agar dilution method
Escherichia coli [2] = experiment: Antimicrobial activity against Escherichia coli qnrA1 producing urinary specimen isolate 13.52 by agar dilution method; details: Urine
Escherichia coli [3] = experiment: Antimicrobial activity against streptomycin-resistant Escherichia coli J53 by agar dilution method

Compound | MIC (Escherichia coli [1]; J53, Urine) [µg/mL] | MIC (Escherichia coli [2]) [µg/mL] | MIC (Escherichia coli [3]) [µg/mL] | MIC (Escherichia coli [1]; Urine) [µg/mL]
CO[C@@]1(NC(=O)Cc2cccs2)C(=O)N2C(C(=O)O)=C(COC(N)=O)CS[C@@H]21 [CEFOXITIN] | 256 (≈ 599 µM) | 32 (≈ 74.9 µM) | 8 (≈ 18.7 µM) | –
CO/N=C(\C(=O)N[C@@H]1C(=O)N2C(C(=O)O)=C(CSc3nc(=O)c(O)nn3C)CS[C@H]12)c1csc(N)n1 (stereo in doubt) [CEFTRIAXONE] | 8 (≈ 14.4 µM) | 8 (≈ 14.4 µM) | 0.047 (≈ 0.0847 µM) | –
CN[C@@H]1[C@H](O[C@H]2[C@H](O[C@H]3[C@H](O)[C@@H](O)[C@H](N=C(N)N)[C@@H](O)[C@@H]3N=C(N)N)O[C@@H](C)[C@]2(O)C=O)O[C@@H](CO)[C@H](O)[C@H]1O (stereo in doubt) [STREPTOMYCIN] | > 1020 | 192 (≈ 330 µM) | > 1020 | –
COc1c(N2CCNC(C)C2)c(F)cc2c(=O)c(C(=O)O)cn(C3CC3)c12 (stereo not given) [GATIFLOXACIN] | 1 (≈ 2.66 µM) | 8 (≈ 21.3 µM) | 0.012 (≈ 0.032 µM) | –
C[C@@H](O)[C@H]1C(=O)N2C(C(=O)O)=C(S[C@@H]3CN[C@H](C(=O)N(C)C)C3)[C@H](C)[C@H]12 [MEROPENEM] | ≤ 0.025 | ≤ 0.025 | ≤ 0.025 | –
C[C@H]1COc2c(N3CCN(C)CC3)c(F)cc3c(=O)c(C(=O)O)cn1c23.C[C@H]1COc2c(N3CCN(C)CC3)c(F)cc3c(=O)c(C(=O)O)cn1c23.O [LEVOFLOXACIN] | 1.5 | 8 | 0.064 | –
CC(O)[C@H]1C(=O)N2C(C(=O)O)=C(SCCNC=N)C[C@H]12 (single isomer, unassigned) [IMIPENEM ANHYDROUS] | ≤ 0.025 | ≤ 0.025 | ≤ 0.025 | –
O=C(N[C@H](CO)[C@H](O)c1ccc([N+](=O)[O-])cc1)C(Cl)Cl [CHLORAMPHENICOL] | 48 (≈ 149 µM) | > 256 | 8 (≈ 24.8 µM) | –
NCC[C@H](O)C(=O)N[C@@H]1C[C@H](N)[C@@H](O[C@H]2O[C@H](CN)[C@@H](O)[C@H](O)[C@H]2O)[C@H](O)[C@H]1O[C@H]1O[C@H](CO)[C@@H](O)[C@H](N)[C@H]1O [AMIKACIN] | 2 (≈ 3.42 µM) | 4 (≈ 6.83 µM) | 2 (≈ 3.42 µM) | –
CC1(C)S[C@@H]2[C@H](NC(=O)[C@H](N)c3ccccc3)C(=O)N2[C@H]1C(=O)O [AMPICILLIN] | > 256 | > 256 | 8 (≈ 22.9 µM) | –
NC[C@H]1O[C@H](O[C@H]2[C@H](O)[C@@H](O[C@H]3O[C@H](CO)[C@@H](O)[C@H](N)[C@H]3O)[C@H](N)C[C@@H]2N)[C@H](O)[C@@H](O)[C@@H]1O [KANAMYCIN] | 128 (≈ 264 µM) | 32 (≈ 66 µM) | 8 (≈ 16.5 µM) | –
CO/N=C(\C(=O)N[C@@H]1C(=O)N2C(C(=O)[O-])=C(C[N+]3(C)CCCC3)CS[C@H]12)c1csc(N)n1 [CEFEPIME] | 0.5 (≈ 1.04 µM) | 0.5 (≈ 1.04 µM) | 0.06 (≈ 0.125 µM) | –
CCn1cc(C(=O)O)c(=O)c2ccc(C)nc21 [NALIDIXIC ACID] | 128 (≈ 551 µM) | 256 (≈ 1100 µM) | 4 (≈ 17.2 µM) | –
GENTAMICIN | – | 2 | 0.125 | 2
CC(C)(O/N=C(\C(=O)N[C@@H]1C(=O)N2C(C(=O)[O-])=C(C[n+]3ccccc3)CS[C@H]12)c1csc(N)n1)C(=O)O [CEFTAZIDIME] | 128 (≈ 234 µM) | 64 (≈ 117 µM) | 0.25 (≈ 0.457 µM) | –
